Patent publication US20260234161A1, “RIFABUTIN ANALOGS FOR THE TREATMENT OF BACTERIAL DISEASES” (BIOVERSYS AG, priority 2023, published 2026)
Converted amounts (≈) assume the structure as drawn.

Key:
Format in all cases: cell-based
[1] = test system: S. aureus (UAMS-1625 strain); assay: MIC by broth microdilution, S. aureus; settings: Staphylococcus aureus, 20 h, read-out: MIC S. aureus
In short: (§1)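 CLSI broth microdilution in cation-adjusted Mueller Hinton broth, 5×10^5 CFU/mL inoculum; ADC (5%) added for M. avium and M. xenopi (M. xenopi inoculum from 7H9+ADC liquid culture). Two-fold series 16–0.016 μg/mL (M. abscessus, M. avium), 1–6×10^−5 μg/mL (M. xenopi); S. aureus 35° C 20 h, M. abscessus 30° C 4 days, others 37° C ≥7 days; MIC = lowest concentration without visible growth.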

[2] = test system: A. baumannii (HUMC1 strain); assay: MIC by broth microdilution, A. baumannii (RPMI + 10% FCS); settings: Acinetobacter baumannii; HUMC1 strain; RPMI medium + 10% FCS; 35° C., 20 hours; read-out: MIC A. baumannii
[3] = test system: M. abscessus (ATCC 19977); assay: MIC by broth microdilution, M. abscessus in Middlebrook 7H9 broth + ADC; settings: Mycobacteroides abscessus, ATCC19977, 96 h; ATCC 19977; Middlebrook 7H9 broth + ADC growth supplement (10%); 30° C., 4 days; read-out: MIC M. abscessus 7H9
Method: (§2) MIC values were determined by broth microdilution method according to the CLSI guidelines with the following exceptions: MIC against A. baumannii was performed in RPMI medium supplemented with 10% FCS and MIC against M. abscessus was performed in Middlebrook 7H9 broth supplemented with Middlebrook ADC growth supplement (10%; see column “M. abscessus 7H9”). MIC forM abscessus was determined a second time in standard cation adjusted Mueller Hinton broth without growth supplement (see colum “M. abscessus MH”). All other MIC were performed in standard cation adjusted Mueller Hinton broth, supplemented with Middlebrook ADC growth supplement (5%) for the slow growing mycobacteria (M. xenopi, M. kansasii and M. avium).
(§3) The following procedure applies to all species tested, except forM xenopi. From a fresh culture plate (from overnight to several days depending on the bacteria), cells were resuspended in 0.9% (w/v) saline solution and bacterial inoculum was prepared in the respective testing medium with 5×10^5 CFU/mL. For M. xenopi, the inoculum was prepared from a fresh liquid culture (7H9+ADC). The appropriate volumes of a 10 mg/mL compound solution were directly dispensed in the 96-well assay plate using a digital dispenser to create two-fold dilution series from 32 to 0.002 μg/mL final concentration for A. baumannii and S. aureus; from 16 to 0.016 μg/mL for M. abscessus and M. avium; and from 1 to 6×10^−5 μg/mL for M. kansasii and M. xenopi. 100 μL of bacterial suspension was finally added to the compounds. Plates were covered and incubated without shaking at 35° C. for 20 hours for A. baumanii and S. aureus; at 30° C. for 4 days for M. abscessus; and at 37° C. for 7 days (at least) for M. kansasii (covered with aluminum foil to avoid light exposure), M. avium and M. xenopi. Every experiment contained an antibiotic as quality control. MIC was determined visually as the lowest concentration of a compound that prevents visible growth of the bacteria.
(§4) The in vitro activity of compounds described herein was determined against S. aureus (UAMS-1625 strain), A. baumannii (HUMC1 strain), M. abscessus (ATCC 19977), M. kansasii (ATCC 12478), M. avium (ATCC 25291), and M. xenopi (ATCC 19250).

[4] = test system: M. abscessus (ATCC 19977); assay: MIC by broth microdilution, M. abscessus in cation adjusted Mueller Hinton broth; settings: Mycobacteroides abscessus, ATCC19977, 96 h; ATCC 19977; cation adjusted Mueller Hinton broth without growth supplement; 30° C., 4 days; read-out: MIC M. abscessus MH
In short: as §1

M. kansasii (ATCC 12478) = assay: MIC by broth microdilution, M. kansasii; settings: Mycobacterium kansasii, ATCC12478, 168 h, cation adjusted Mueller Hinton broth + ADC (5%), 37° C., 7 days (at least)
Method: as §2, §3, §4

M. xenopi (ATCC 19250) = assay: MIC by broth microdilution, M. xenopi; settings: Mycobacterium xenopi, ATCC19250, 168 h, cation adjusted Mueller Hinton broth + ADC (5%), 37° C., 7 days (at least)
Method: as §2, §3, §4

M. avium (ATCC 25291) = assay: MIC by broth microdilution, M. avium; settings: Mycobacterium avium, ATCC25291, 168 h, cation adjusted Mueller Hinton broth + ADC (5%), 37° C., 7 days (at least)
Method: as §2, §3, §4

Row | SMILES | MIC [1] | MIC [2] | MIC [3] | MIC [4] | MIC (M. kansasii (ATCC 12478)) | MIC (M. xenopi (ATCC 19250)) | MIC (M. avium (ATCC 25291))
1 | CO[C@H]1/C=C/O[C@@]2(C)Oc3c(C)c(O)c4c(c3C2=O)C2=NC3(CCN(CC(C)C)CC3)NC2=C(NC(=O)/C(C)=C\C=C\[C@H](C)[C@H](O)[C@@H](C)[C@@H](O)[C@@H](C)[C@H](OC(=O)N2CCN(c3ccccn3)CC2)[C@@H]1C)C4=O [Compound 8] | 0.25 µg/mL (≈ 0.251 µM) | 0.25 µg/mL | 0.125 µg/mL | 0.5 µg/mL (≈ 0.503 µM) | 0.0005 µg/mL | 0.008 µg/mL | 0.25 µg/mL
2 | CO[C@H]1/C=C/O[C@@]2(C)Oc3c(C)c(O)c4c(c3C2=O)C2=NC3(CCN(CC(C)C)CC3)NC2=C(NC(=O)/C(C)=C\C=C\[C@H](C)[C@H](O)[C@@H](C)[C@@H](O)[C@@H](C)[C@H](OC(=O)N2CCN(CC3CCCCC3)CC2)[C@@H]1C)C4=O [Compound 9] | 0.5 µg/mL (≈ 0.493 µM) | 0.5 µg/mL | 0.06 µg/mL | 0.125 µg/mL (≈ 0.123 µM) | 0.0002 µg/mL | 0.016 µg/mL | 0.125 µg/mL
3 | CO[C@H]1/C=C/O[C@@]2(C)Oc3c(C)c(O)c4c(c3C2=O)C2=NC3(CCN(CC(C)C)CC3)NC2=C(NC(=O)/C(C)=C\C=C\[C@H](C)[C@H](O)[C@@H](C)[C@@H](O)[C@@H](C)[C@H](OC(=O)N2CCN(C3CCCCC3)CC2)[C@@H]1C)C4=O [Compound 10] | 0.25 µg/mL (≈ 0.25 µM) | 0.06 µg/mL | 0.06 µg/mL | 0.06 µg/mL (≈ 0.06 µM) | 0.0002 µg/mL | 0.002 µg/mL | 0.06 µg/mL
4 | CO[C@H]1/C=C/O[C@@]2(C)Oc3c(C)c(O)c4c(c3C2=O)C2=NC3(CCN(CC(C)C)CC3)NC2=C(NC(=O)/C(C)=C\C=C\[C@H](C)[C@H](O)[C@@H](C)[C@@H](O)[C@@H](C)[C@H](OC(=O)NC2CCN(Cc3ccccc3)CC2)[C@@H]1C)C4=O [Compound 14] | 0.125 µg/mL (≈ 0.122 µM) | 0.004 µg/mL | 0.25 µg/mL | 0.25 µg/mL (≈ 0.245 µM) | 0.0005 µg/mL | 0.008 µg/mL | 0.25 µg/mL
